These results are taken from patent publication US10160762B2, “6-alkyl dihydropyrazolopyrimidinone compounds as PDE2 inhibitors” (Merck Sharp & Dohme Corp., priority 2015, dated 2018).

Molecules are shown by their SMILES. Read-outs that look alike come from different tables or passages of the source.

The assay concerns the target T1, Rhesus PDE2A3 (Macaca mulatta, UniProt B3VTJ2).
T1 construct: made in house; host or cells: AD293 cells, transient transfection; supernatant of sonicated lysate
T1 sequence (B3VTJ2 1-941): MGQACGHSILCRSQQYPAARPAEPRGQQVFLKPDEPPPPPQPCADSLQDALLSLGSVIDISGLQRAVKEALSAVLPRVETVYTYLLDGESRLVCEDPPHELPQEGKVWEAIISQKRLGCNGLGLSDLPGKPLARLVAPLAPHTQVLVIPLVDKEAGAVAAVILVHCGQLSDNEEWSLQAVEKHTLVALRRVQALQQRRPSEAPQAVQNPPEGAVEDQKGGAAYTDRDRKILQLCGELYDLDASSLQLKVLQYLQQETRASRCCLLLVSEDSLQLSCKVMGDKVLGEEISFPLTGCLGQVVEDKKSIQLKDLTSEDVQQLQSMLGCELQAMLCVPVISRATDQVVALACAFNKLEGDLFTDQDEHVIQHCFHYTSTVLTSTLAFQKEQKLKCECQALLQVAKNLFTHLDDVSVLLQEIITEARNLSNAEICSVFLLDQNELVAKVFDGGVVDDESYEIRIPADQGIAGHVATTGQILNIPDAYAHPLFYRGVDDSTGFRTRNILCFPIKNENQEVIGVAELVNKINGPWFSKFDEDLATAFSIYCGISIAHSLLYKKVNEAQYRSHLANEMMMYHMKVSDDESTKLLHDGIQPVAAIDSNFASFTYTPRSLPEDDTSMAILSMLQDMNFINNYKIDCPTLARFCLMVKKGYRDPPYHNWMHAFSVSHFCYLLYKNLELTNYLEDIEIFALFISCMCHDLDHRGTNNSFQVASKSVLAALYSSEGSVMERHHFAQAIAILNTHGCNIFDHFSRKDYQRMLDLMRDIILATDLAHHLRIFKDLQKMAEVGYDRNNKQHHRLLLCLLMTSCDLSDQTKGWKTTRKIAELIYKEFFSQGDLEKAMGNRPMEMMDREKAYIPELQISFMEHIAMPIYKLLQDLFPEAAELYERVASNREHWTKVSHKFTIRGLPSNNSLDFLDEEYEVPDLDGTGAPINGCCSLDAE
Description: PDE2 fluorescence polarization (IMAP FP) inhibition assay, rhesus PDE2A3. The class given is biochemical, rhesus macaque. Put shortly: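 Enzyme source was the lysate supernatant of AD293 cells transiently expressing rhesus PDE2A3, diluted to give 20% conversion of 50 nM FAM-cAMP, with 1 µM cGMP as activator. Buffer was 10 mM Tris pH 7.2, 10 mM MgCl2, 1 mM DTT.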

Where [1] appears, read: Lab A, read-out: Rhesus PDE2 Ki (nM) Lab A.
The mark [2] stands for this setting: Lab B, read-out: Rhesus PDE2 Ki (nM) Lab B.

As to `Cc1nc2c(c(CO)nn2C(C)c2ccc(C(F)(F)F)cc2)c(=O)[nH]1` (single isomer, unassigned) [Example 27, (S)- or (R)-3-(Hydroxymethyl)-6-methyl-1-{1-[4-(trifluoromethyl)phenyl]ethyl]-1,5-dihydro-4H-pyrazolo[3,4-d]pyrimidin-4-one], the Ki was 2 nM under setting [1] and 2.1 nM under setting [2].
Turning to `Cc1nn(C(C)c2ccc(C(F)(F)F)cc2)c2nc(-c3ccccn3)[nH]c(=O)c12` (stereo not drawn) [Example 52, 3-Methyl-6-pyridin-2-yl-1-{1-[4-(trifluoromethyl)phenyl]ethyl}-1,5-dihydro-4H-pyrazolo[3,4-d]pyrimidin-4-one], the Ki under setting [1] was found to be 28 nM.
For `COc1cccc(-c2nc3c(c(C)nn3C(C)c3ccc(C(F)(F)F)cc3)c(=O)[nH]2)c1` (stereo not drawn) [Example 47, 6-(3-Methoxyphenyl)-3-methyl-1-{1-[4-(trifluoromethyl)phenyl]ethyl}-1,5-dihydro-4H-pyrazolo[3,4-d]pyrimidin-4-one], the Ki under setting [1] came out at 18 nM.
Still for that read-out and setting: in the case of `Cc1nc2c(c(CF)nn2C(C)c2ccc(C(F)(F)F)cc2)c(=O)[nH]1` (stereo not drawn) [Example 204, 3-(Fluoromethyl)-6-methyl-1-{1-[4-(trifluoromethyl)phenyl]ethyl}-1,5-dihydro-4H-pyrazolo[3,4-d]pyrimidin-4-one] it was 4 nM; in that of `Cc1nn(C(C)c2ccc(C(F)(F)F)cc2)c2nc(C(C)C)[nH]c(=O)c12` (stereo not drawn) [Example 43, 3-Methyl-6-(1-methylethyl)-1-{1-[4-(trifluoromethyl)phenyl]ethyl}-1,5-dihydro-4H-pyrazolo[3,4-d]pyrimidin-4-one], 257 nM.
As to `COc1ccc(Cc2nc3c(c(C(F)F)nn3C(C)c3ccc(C(F)(F)F)cc3)c(=O)[nH]2)cc1OC` (single isomer, unassigned) [Example 196], the Ki under setting [2] amounted to 28 nM.
As to `Cc1nc2c(c(C(C)O)nn2C(C)c2ccc(C(F)(F)F)cc2)c(=O)[nH]1` (stereo not drawn) [Example 328, 3-(1-Hydroxyethyl)-6-methyl-1-{1-[4-(trifluoromethyl)phenyl]ethyl}-1,5-dihydro-4H-pyrazolo[3,4-d]pyrimidin-4-one], the Ki by setting is: under setting [1], 22 nM; under setting [2], 33 nM.

By Ki is commonly meant a dissociation constant, usually derived from enzyme kinetics or from competition with a known ligand.
